Data set [1] concerns H. influenzae 30063. The experiment in a line: MIC by agar dilution, H. influenzae 30063. The settings on record: Haemophilus influenzae, Mueller Hinton agar, overnight at 35° C. Format: cell-based. The text has this:
(§1) The in vitro activity of compounds of the subject invention may be assessed by standard testing procedures such as the determination of minimum inhibitory concentration (MIC) by agar dilution as described in “Approved Standard. Methods for Dilution Antimicrobial Susceptibility Tests for Bacteria that Grow Aerobically,” 3rd ed., published 1993 by the National Committee for Clinical Laboratory standards, Villanova, Pa., USA. The in vitro MICs of test compounds may be determined by a standard agar dilution method. A stock drug solution of each analog is prepared in a preferred solvent, usually DMSO:H2O (1:3). Serial 2-fold dilutions of each sample are made using 1.0 ml aliquots of sterile distilled water. To each 1.0 ml aliquot of drug is added 9 ml of molten Mueller Hinton agar medium. The drug-supplemented agar is mixed, poured into 15×100 mm petri dishes, and allowed to solidify and dry prior to inoculation. Vials of each of the test microorganisms are maintained frozen in the vapor phase of a liquid nitrogen freezer. Test cultures are grown overnight at 35° C. on the medium appropriate for the microorganism. Colonies are harvested with a sterile swab, and cell suspensions are prepared in Trypticase Soy broth (TSB) to equal the turbidity of a 0.5 McFarland standard. A 1:20 dilution of each suspension is made in TSB. The plates containing the drug supplemented agar are inoculated with a 0.001 ml drop of the cell suspension using a Steers replicator, yielding approximately 10^4 to 10^5 cells per spot. The plates are incubated overnight at 35° C. Following incubation the Minimum Inhibitory Concentration (MIC μg/ml), the lowest concentration of drug that inhibits visible growth of the microorganism, is read and recorded.

The test system of data set [2] is S. aureus UC9213. Description: MIC by agar dilution, S. aureus UC9213. The class given is cell-based. The following applies: Staphylococcus aureus, Mueller Hinton agar, overnight at 35° C.
Description: as §1

The subject of data set [3] is S. pneumoniae UC9912. The experiment in a line: MIC by agar dilution, S. pneumoniae UC9912. The class given is cell-based. The following applies: Streptococcus pneumoniae, Mueller Hinton agar, overnight at 35° C.
Description: as §1

Converted amounts (≈) assume the structure as drawn.

For the compound `CC(=O)NC[C@H]1CN(c2ccc(C3=NNC(=O)CS3)c(F)c2)C(=O)O1` [Example 1, N-{3-[3-Fluoro-4-(5-oxo-5,6-dihydro-4H-[1,3,4]thiadiazin-2-yl)-phenyl]-2-oxo-oxazolidin-5(S)-ylmethyl}-acetamide], the melting point is 206 to 209 °C. This compound gave an MIC in data set [1] of 1 µg/mL (≈ 2.73 µM). This compound also displayed an MIC in data set [2] of 0.5 µg/mL (≈ 1.36 µM). For the same compound, the MIC in data set [3] is < 0.06 µg/mL.
The like results for `O=C(/C=C/c1ccc(/C=N/O)cc1)NC[C@H]1CN(c2ccc(C3=NNC(=O)CS3)c(F)c2)C(=O)O1` [Example 23, N-{3-[3-Fluoro-4-(5-oxo-5,6-dihydro-4H-[1,3,4]thiadiazin-2-yl)-phenyl]-2-oxo-oxazolidin-5(S)-ylmethyl}-3-[4-(hydroxyimino-methyl)-phenyl]-acrylamide] were, in that order, 144 to 145 °C, 8 µg/mL (≈ 16.1 µM), 1 µg/mL (≈ 2.01 µM) and 0.25 µg/mL (≈ 0.503 µM).
The like results for `CC(=S)NC[C@H]1CN(c2ccc(C3=NNC(=S)CS3)c(F)c2)C(=O)O1` [Example 26, N-{3-[3-Fluoro-4-(5-thioxo-5,6-dihydro-4H-[1,3,4]thiadiazin-2-yl)-phenyl]-2-oxo-oxazolidin-5(S)-ylmethyl}-thioacetamide] were, in that order, 158 to 161 °C, 1 µg/mL (≈ 2.51 µM), 0.25 µg/mL (≈ 0.627 µM) and < 0.06 µg/mL.
The compound `CC(=O)NC[C@H]1CN(c2ccc(C3=NN(C)C(=O)CS3)c(F)c2)C(=O)O1` [Example 32, N-{3-[3-Fluoro-4-(4-methyl-5-oxo-5,6-dihydro-[1,3,4]thiadiazin-2-yl)-phenyl]-2-oxo-oxazolidin-5(S)-ylmethyl}-acetamide] came in with a melting point of 179 to 180 °C. The compound further displayed an MIC in data set [1] of 16 µg/mL (≈ 42.1 µM). In data set [2], this compound displayed an MIC of 2 µg/mL (≈ 5.26 µM). In data set [3], the MIC was determined as 0.5 µg/mL (≈ 1.31 µM).

(Values after patent US6828317B2, “Antimicrobial thiadiazinone derivatives and their application for treatment of bacterial infections” (Pharmacia & Upjohn Company, priority 2002, dated 2004).)
